Patent US7858349B2, “Anti-cancer compounds” (The Regents of the University of Colorado, priority 1999, dated 2010)
pIC50: −log10 of the molar value. Like-named read-outs stand apart in the source and are kept apart here.

Key:
PC3 PC cells = test: Inhibition of PC3 tumor growth in vivo in nude mice; parameters: species or system athymic nude mice; key to PC3 In vivo % inhib.: an IC50 value of “0” represents no detectable anti-cancer activity for a drug in a given cell line; “Stim.” indicates the observation of a stimulatory activity on the growth of the cancer cell line; conditions: percent inhibition of tumor growth in nude mice; prostate cancer; i.p. 5 mg/kg/every second day or 10 mg/kg/every fourth day
Procedure, shortened: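 Athymic nude mice carrying subcutaneous Matrigel implants (2 million SHP-77, 1 million A549 or 1.5 million PC3 cells) received intraperitoneal compound from day 8, 5 mg/kg every second day or 10 mg/kg every fourth day, 5 mice/group, vehicle controls. Inhibition from caliper volume (3.14×L×W²/6, thrice weekly) and tumor weight at autopsy.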

A549 NSCLC cells = test: Inhibition of A-549 tumor growth in vivo in nude mice; parameters: species or system athymic nude mice; key: an IC50 value of “0” represents no detectable anti-cancer activity for a drug in a given cell line; “Stim.” indicates the observation of a stimulatory activity on the growth of the cancer cell line; conditions: percent inhibition of tumor growth in nude mice; i.p. 5 mg/kg/every second day or 10 mg/kg/every fourth day
Experimental: Compounds having high in vitro cytotoxic activity were tested against implanted tumors in vivo. Athymic nude mice were implanted subcutaneously with suspensions (2 million SHP-77 SCLC cells, 1 million A549 NSCLC cells or 1.5 million PC3 PC cells) in Matrigel suspension. On the eighth day after tumor implantation groups of 5 mice bearing implants were injected intraperitoneally with the compounds being tested at 5 mg/kg/every second day or at 10 mg/kg/every fourth day; control animals were injected with an equal volume of isotonic saline. Less soluble compounds were initially dissolved in dimethyl sulfoxide (DMSO) and diluted with medium. In those cases the control injections contained the same concentration of DMSO. Tumor size was measured with a caliper three times per week. Tumor volume was calculated by the formula: Volume(cc)=3.14×(length)×(width)^2/6 At autopsy tumors were removed and weighed. Tumor inhibition was calculated on both weight and measurement basis. In each Table, an IC50 value of “0” represents no detectable anti-cancer activity for a drug in a given cell line and “Stim.” indicates the observation of a stimulatory activity on the growth of the cancer cell line.

SCLC strain SHP-77 = test: MTT assay for cell survival, SCLC SHP-77 in vitro; assay type: cell-based, human; conditions: ED50 for killing of SCLC strain SHP-77 in vitro, 4 days, 0 = no detectable activity
NSCLC strain A-549 = test: MTT assay for cell survival, NSCLC A-549 in vitro; assay type: cell-based, human; conditions: ED50 for killing of NSCLC strain A-549 in vitro, 4 days

Structure (SMILES)	PC3 In vivo % inhib. (PC3 PC cells)	A-549 In vivo % inhib. (A549 NSCLC cells)	pIC50 (SCLC strain SHP-77; read-out: SHP-77 In vitro IC50)	pIC50 (NSCLC strain A-549)	pIC50 (SCLC strain SHP-77; read-out: SCLC SHP-77 IC50)
CC1(C)CC(NC(=O)C(Cc2ccc(OCc3c(Cl)cccc3Cl)cc2)NC(=O)C(c2ccccc2)C2CCCCC2)CC(C)(C)N1 (single isomer, unassigned) [M-1124#1, Chpa-OC2Y-Atmp]	Stim	50%	5.77		
CC1(C)CC(NC(=O)C(Cc2ccc(OCc3c(Cl)cccc3Cl)cc2)NC(=O)C(c2ccccc2)C2CCCCC2)CC(C)(C)N1 (single isomer, unassigned) [M-1124#2, Chpa-OC2Y-Atmp]		4.5%	5.46		
CC1(C)CC(NC(=O)C(Cc2ccc(OCc3c(Cl)cccc3Cl)cc2)NC(=O)C(C)(c2ccccc2)c2ccccc2)CC(C)(C)N1 (centres unmarked) [Analog M-1126, 22Dp-OC2Y-Atmp]		36%	5.40		
CCCCCCC(O)CC=CCCCCCCCC(=O)NC(Cc1ccc(OCc2c(Cl)cccc2Cl)cc1)C(=O)NC1CC(C)(C)NC(C)(C)C1 (centres unmarked) [Analog M-1128, Rio-OC2Y-Atmp]	44%	48%	5.80		
CC1(C)CC(NC(=O)C(Cc2ccc(-c3ccccc3)cc2)NC(=O)C=Cc2c(F)c(F)c(F)c(F)c2F)CC(C)(C)N1 (centres unmarked) [Analog M-1174, F5c-Bip-Atmp]	37%	57%	5.43		
O=C(C=Cc1c(F)c(F)c(F)c(F)c1F)NC(Cc1ccc(I)cc1)C(=O)NC1CCN(Cc2ccccc2)CC1 (centres unmarked) [Analog M-1180, F5c-PIF-Abzp]	53%	23%	5.49		
O=C(NC1CCN(Cc2ccccc2)CC1)C(Cc1c(F)c(F)c(F)c(F)c1F)NC(=O)C(c1ccc(Cl)cc1)c1ccc(Cl)cc1 (centres unmarked) [Analog M-1188, Bcpa-F5F-Abzp]		17%	5.35		
O=C(C=Cc1c(F)c(F)c(F)c(F)c1F)NC(Cc1ccc2ccccc2c1)C(=O)N(Cc1ccccn1)Cc1ccccn1 (centres unmarked) [Analog M-1200, F5c-Nal-Dpic]		Stim	5.30		
O=C(NC(Cc1ccc2ccccc2c1)C(=O)N(Cc1ccccn1)Cc1ccccn1)C(c1ccc(Cl)cc1)c1ccc(Cl)cc1 (centres unmarked) [Analog M-1214, Bcpa-Nal-Dpic]	37%	24%	5.14		
O=C(C=Cc1c(F)c(F)c(F)c(F)c1F)NC(Cc1ccc2ccccc2c1)C(=O)N1CCN(c2ccccn2)CC1 (centres unmarked) [Analog M-1216, F5c-Nal-Pypz]	22%	32%	< 4.22		
O=C(NC(Cc1ccc2ccccc2c1)C(=O)N1CCN(c2ccccn2)CC1)C(c1ccc(Cl)cc1)c1ccc(Cl)cc1 (centres unmarked) [Analog M-1242, Bcpa-Nal-Pypz]	36%	19%	< 4.22		
O=C(C=Cc1c(F)c(F)c(F)c(F)c1F)NC(Cc1ccc(-c2ccccc2)cc1)C(=O)N1CC2CC1CN2c1ccc(F)cc1 (centres unmarked) [Analog M-1272, F5c-Bip-Fpdh]	71%			4.66	5.00
O=C(NC(Cc1ccc(-c2ccccc2)cc1)C(=O)N1CC2CC1CN2Cc1ccccc1)C(c1ccc(Cl)cc1)c1ccc(Cl)cc1 (centres unmarked) [Analog M-1276, Bcpa-Bip-Bdbh]	56%			4.70	< 4.22
O=C(C=Cc1c(F)c(F)c(F)c(F)c1F)NC(Cc1ccc(I)cc1)C(=O)N1CC2CC1CN2Cc1ccccc1 (centres unmarked) [Analog M-1280, F5c-PIF-Bdbh]	40%			4.70	5.00
O=C(C=Cc1c(F)c(F)c(F)c(F)c1F)NC(Cc1ccc(I)cc1)C(=O)N1CCC2(CC1)OCCO2 (centres unmarked) [Analog M-1284, F5c-PIF-Dasd]	Stim.			4.70	4.66
O=C(C=Cc1c(F)c(F)c(F)c(F)c1F)NC(Cc1ccc(I)cc1)C(=O)NC1CN2CCC1CC2 [Analog M-1286, F5c-PIF-(R)-(+)-Aqu]				5.05	5.37
O=C(C=Cc1c(F)c(F)c(F)c(F)c1F)NC(Cc1ccc(-c2ccccc2)cc1)C(=O)NC1CN2CCC1CC2 [Analog M-1288, F5c-Bip-(R)-(+)-Aqu]				5.14	5.37
O=C(C=Cc1c(F)c(F)c(F)c(F)c1F)NC(Cc1ccc(I)cc1)C(=O)N1CCCN(Cc2ccccc2)CC1 (centres unmarked) [Analog M-1294, F5c-PIF-Bhp]	44%			4.66	

Structure (SMILES)	PC3 In vivo % inhib. (PC3 PC cells)	A-549 In vivo % inhib. (A549 NSCLC cells)	pIC50 (SCLC strain SHP-77; read-out: SHP-77 In vitro IC50)	pIC50 (NSCLC strain A-549)	pIC50 (SCLC strain SHP-77; read-out: SCLC SHP-77 IC50)
O=C(C=Cc1c(F)c(F)c(F)c(F)c1F)NC(Cc1ccc(I)cc1)C(=O)N1CCN(Cc2ccc(Cl)cc2)CC1 (centres unmarked) [Analog M-1310, F5c-PIF-4-Clbp]	Stim.			4.92	
O=C(C=Cc1c(F)c(F)c(F)c(F)c1F)NC(Cc1ccc(I)cc1)C(=O)NC1CCN(Cc2ccccc2)C1 (centres unmarked) [Analog M-1312, F5c-PIF-BapS]	33%			4.89	
O=C(C=Cc1c(F)c(F)c(F)c(F)c1F)NC(Cc1ccc(I)cc1)C(=O)N1CCN(Cc2ccc(F)cc2)CC1 (centres unmarked) [Analog M-1322, F5c-PIF-Fbp]	46%			4.89	
O=C(C=Cc1c(F)c(F)c(F)c(F)c1F)NC(Cc1ccc(I)cc1)C(=O)NC1CCN(Cc2ccccc2)C1 (centres unmarked) [Analog M-1326, F5c-PIF-BapR]	0.6%			5.00	
CCCCCCCCN1CCN(C(=O)C(Cc2ccc(I)cc2)NC(=O)C=Cc2c(F)c(F)c(F)c(F)c2F)CC1 (centres unmarked) [Analog M-1330, F5c-PIF-Ocp]	40%			4.77	
Cc1ccc(CN2CCN(C(=O)C(Cc3ccc(I)cc3)NC(=O)C=Cc3c(F)c(F)c(F)c(F)c3F)CC2)cc1 (centres unmarked) [Analog M-1332, F5c-PIF-4-Mbp]	63%			5.11	
Cc1cc(C)c(CN2CCN(C(=O)C(Cc3ccc(I)cc3)NC(=O)C=Cc3c(F)c(F)c(F)c(F)c3F)CC2)c(C)c1 (centres unmarked) [Analog M-1334, F5c-PIF-Tmbp]	50%			4.72	
O=C(C=Cc1c(F)c(F)c(F)c(F)c1F)NC(Cc1ccc(I)cc1)C(=O)N1CCN(C(c2ccc(F)cc2)c2ccc(F)cc2)CC1 (centres unmarked) [Analog M-1336, F5c-PIF-Fpmp]	71%			4.92	
CC1(C)CC(NC(=O)C(Cc2ccc(OCc3c(Cl)cccc3Cl)cc2)NC(=O)c2ccccn2)CC(C)(C)N1 (centres unmarked) [Analog M-1350, Pic-OC2Y-Atmp]		36%			5.21
CC1(C)CC(NC(=O)[C@H](Cc2ccc(C#N)cc2)NC(=O)c2ccccn2)CC(C)(C)N1 [Analog M-1352, Pic-PCNF-Atmp]		21%			< 4.22
CC1(C)CC(NC(=O)C(Cc2ccc(OCc3c(Cl)cccc3Cl)cc2)NC(=O)Cc2c(F)c(F)c(F)c(F)c2F)CC(C)(C)N1 (centres unmarked) [Analog M-1356, F5pa-OC2Y-Atmp]		0			5.36
COc1ccc(C=CC(=O)NC(Cc2ccc(OCc3c(Cl)cccc3Cl)cc2)C(=O)NC2CC(C)(C)NC(C)(C)C2)cc1OC (centres unmarked) [Analog M-1362, 3,4Dmc-OC2Y-Atmp]		21%			5.40
CC1(C)CC(NC(=O)C(Cc2ccc(OCc3c(Cl)cccc3Cl)cc2)NC(=O)CCCc2c[nH]c3ccccc23)CC(C)(C)N1 (centres unmarked) [Analog M-1364, 3Ibu-OC2Y-Atmp]	9%	50%			5.14
CC(C)=CCCC(C)CC(=O)NC(Cc1ccc(OCc2c(Cl)cccc2Cl)cc1)C(=O)NC1CC(C)(C)NC(C)(C)C1 (centres unmarked) [Analog M-1366, Dmo-OC2Y-Atmp]		14%			5.42
CC1(C)CC(NC(=O)C(Cc2ccc(OCc3c(Cl)cccc3Cl)cc2)NC(=O)c2ccc(B(O)O)cc2)CC(C)(C)N1 (centres unmarked) [Analog M-1372, Bbz-OC2Y-Atmp]		64%			< 4.22
COc1ccc2cc(C(C)C(=O)NC(Cc3ccc(OCc4c(Cl)cccc4Cl)cc3)C(=O)NC3CC(C)(C)NC(C)(C)C3)ccc2c1 (centres unmarked) [Analog M-1380, Napr-OC2Y-Atmp]	26%			5.80	5.77
CC1(C)CC(NC(=O)C(Cc2ccc(OCc3c(Cl)cccc3Cl)cc2)NC(=O)Cc2ccccc2Nc2c(Cl)cccc2Cl)CC(C)(C)N1 (centres unmarked) [Analog M-1382, Dfc-OC2Y-Atmp]		46%			5.54
CC1(C)CC(NC(=O)C(Cc2ccc(OCc3c(Cl)cccc3Cl)cc2)NC(=O)c2ccc(NC(=N)N)cc2)CC(C)(C)N1 (centres unmarked) [Analog M-1390, Gbz-OC2Y-Atmp]	Stim.			5.37	< 4.40
